This note sets out measurements from ChEMBL document CHEMBL5727779, “Compounds for inhibiting AGC kinase and pharmaceutical compositions comprising the same” (2020).

pIC50: −log10 of the molar value. Bounds are passed on as bounds.

The target of experiment [1] is Rho-associated protein kinase 2 (Homo sapiens, UniProt O75116). The experiment is described as follows: (§1) ELISA Assay: ROCK Substrate Coated Plate (Part No 241601): One strip well 96-well plate pre-coated with recombinant MYPT1.Buffer: 25 mM Tris, pH 7.5, 10 mM MgCl2, 5 mM Glycerol-2-Phosphate, 0.1 mM Na3VO4; 1% DMSO; 2.5 mM DTT; (Enzyme: ROCK active-II) (Cell Biolabs, Catalog #STA-406, Part No. 241505) 0.1 ng/μl.ATP Solution (Part No. 241604): 100 mM ATP. Final concentration of ATP in reaction mixture: 250 μM.Anti-phospho-MYPT1 (Thr696) (Part No. 241603).Secondary Antibody, HRP Conjugate (Part No. 231003).Biotinylated substrate, diluted to 0.25 μM with buffer described above (without ATP).Steps:1. Purified kinase or cell lysate sample can be used directly in the kinase assay or further diluted with 1× Kinase Buffer. Each sample should be assayed in duplicate.2. Add 90 μL of the diluted active ROCK-II positive control or unknown ROCK samples to the wells of the substrate plate.3. Initiate the kinase reaction by adding 10 μL of the 10× Kinase Reaction Buffer containing DTT and ATP. Mix well.4. Cover with a plate cover and incubate the wells at 30° C. for 30-60 minutes with gentle agitation.5. Stop kinase reaction by flicking out the content or by adding 50 μL of 0.5M EDTA, pH 8.0, to each well.6. Remove the plate cover and empty wells. Wash microwell strips 3 times with 250 μL 1× Wash Buffer per well with thorough aspiration between each wash. After the last wash, empty wells and tap microwell strips on absorbent pad or paper towel to remove excess 1× Wash Buffer.7. Add 100 μL of the diluted anti-phospho-MYPT1 (Thr696) antibody to each well.8. Cover with the plate cover and incubate at room temperature for 1 hour on an orbital shaker.9. Remove the plate cover and empty wells. Wash the strip wells 3 times according to step 6 above.10. Add 100 μL of the diluted HRP-conjugated secondary antibody to each well.11. Cover with the plate cover and incubate at room temperature for 1 hour on an orbital shaker.12. Remove the plate cover and empty wells. Wash microwell strips 3 times according to step 6 above. Proceed immediately to the next step.13. Warm Substrate Solution to room temperature. Add 100 μL of Substrate Solution to each well, including the blank wells. Incubate at room temperature for 5-20 minutes on an orbital shaker.14. Stop the enzyme reaction by adding 100 μL of Stop Solution into each well, including the blank wells. Results should be read immediately (color will fade over time).15. Read absorbance of each microwell on a spectrophotometer using 450 nm as the primary wave length. A general note: ELISA stands for enzyme-linked immunosorbent assay.

For experiment [2], the target named is Rho-associated protein kinase 1 (Homo sapiens, UniProt Q13464). The experiment is described as §1.
Sequence of Rho-associated protein kinase 1 (Q13464 whole entry): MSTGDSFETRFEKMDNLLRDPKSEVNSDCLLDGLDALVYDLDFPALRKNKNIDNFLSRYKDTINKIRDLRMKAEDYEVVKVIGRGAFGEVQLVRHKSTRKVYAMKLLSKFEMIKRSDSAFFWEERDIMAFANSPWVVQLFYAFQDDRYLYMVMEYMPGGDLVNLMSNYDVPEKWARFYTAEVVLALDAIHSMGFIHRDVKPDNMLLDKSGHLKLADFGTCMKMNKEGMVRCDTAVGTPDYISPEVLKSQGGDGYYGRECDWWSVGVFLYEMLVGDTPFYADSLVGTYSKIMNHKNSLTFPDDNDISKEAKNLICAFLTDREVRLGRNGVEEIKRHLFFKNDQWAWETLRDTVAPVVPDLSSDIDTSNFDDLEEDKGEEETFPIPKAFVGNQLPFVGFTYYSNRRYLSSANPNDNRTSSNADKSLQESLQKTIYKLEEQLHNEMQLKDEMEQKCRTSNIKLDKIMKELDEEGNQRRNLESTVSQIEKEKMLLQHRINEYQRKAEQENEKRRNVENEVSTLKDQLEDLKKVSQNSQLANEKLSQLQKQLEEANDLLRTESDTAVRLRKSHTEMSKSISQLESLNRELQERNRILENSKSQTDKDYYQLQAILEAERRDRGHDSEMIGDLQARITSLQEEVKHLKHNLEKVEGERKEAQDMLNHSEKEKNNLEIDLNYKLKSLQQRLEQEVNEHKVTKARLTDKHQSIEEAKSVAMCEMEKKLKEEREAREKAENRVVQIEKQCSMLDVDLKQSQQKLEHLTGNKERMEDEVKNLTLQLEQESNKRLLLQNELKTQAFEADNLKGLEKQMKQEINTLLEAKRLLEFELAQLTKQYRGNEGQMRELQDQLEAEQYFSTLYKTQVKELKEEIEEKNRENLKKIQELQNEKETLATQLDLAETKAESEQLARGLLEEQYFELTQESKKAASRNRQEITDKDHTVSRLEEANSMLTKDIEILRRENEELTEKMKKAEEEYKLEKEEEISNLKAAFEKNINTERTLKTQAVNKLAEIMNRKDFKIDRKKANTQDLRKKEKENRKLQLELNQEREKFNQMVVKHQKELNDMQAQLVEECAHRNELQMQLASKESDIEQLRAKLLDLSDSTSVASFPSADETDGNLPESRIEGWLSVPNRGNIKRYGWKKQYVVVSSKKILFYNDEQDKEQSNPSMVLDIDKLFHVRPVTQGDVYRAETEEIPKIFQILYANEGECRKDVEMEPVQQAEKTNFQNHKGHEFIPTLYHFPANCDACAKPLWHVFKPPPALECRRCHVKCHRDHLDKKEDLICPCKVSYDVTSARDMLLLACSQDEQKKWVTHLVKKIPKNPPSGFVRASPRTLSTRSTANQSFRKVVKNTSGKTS

Sequence of Rho-associated protein kinase 2 (O75116 whole entry): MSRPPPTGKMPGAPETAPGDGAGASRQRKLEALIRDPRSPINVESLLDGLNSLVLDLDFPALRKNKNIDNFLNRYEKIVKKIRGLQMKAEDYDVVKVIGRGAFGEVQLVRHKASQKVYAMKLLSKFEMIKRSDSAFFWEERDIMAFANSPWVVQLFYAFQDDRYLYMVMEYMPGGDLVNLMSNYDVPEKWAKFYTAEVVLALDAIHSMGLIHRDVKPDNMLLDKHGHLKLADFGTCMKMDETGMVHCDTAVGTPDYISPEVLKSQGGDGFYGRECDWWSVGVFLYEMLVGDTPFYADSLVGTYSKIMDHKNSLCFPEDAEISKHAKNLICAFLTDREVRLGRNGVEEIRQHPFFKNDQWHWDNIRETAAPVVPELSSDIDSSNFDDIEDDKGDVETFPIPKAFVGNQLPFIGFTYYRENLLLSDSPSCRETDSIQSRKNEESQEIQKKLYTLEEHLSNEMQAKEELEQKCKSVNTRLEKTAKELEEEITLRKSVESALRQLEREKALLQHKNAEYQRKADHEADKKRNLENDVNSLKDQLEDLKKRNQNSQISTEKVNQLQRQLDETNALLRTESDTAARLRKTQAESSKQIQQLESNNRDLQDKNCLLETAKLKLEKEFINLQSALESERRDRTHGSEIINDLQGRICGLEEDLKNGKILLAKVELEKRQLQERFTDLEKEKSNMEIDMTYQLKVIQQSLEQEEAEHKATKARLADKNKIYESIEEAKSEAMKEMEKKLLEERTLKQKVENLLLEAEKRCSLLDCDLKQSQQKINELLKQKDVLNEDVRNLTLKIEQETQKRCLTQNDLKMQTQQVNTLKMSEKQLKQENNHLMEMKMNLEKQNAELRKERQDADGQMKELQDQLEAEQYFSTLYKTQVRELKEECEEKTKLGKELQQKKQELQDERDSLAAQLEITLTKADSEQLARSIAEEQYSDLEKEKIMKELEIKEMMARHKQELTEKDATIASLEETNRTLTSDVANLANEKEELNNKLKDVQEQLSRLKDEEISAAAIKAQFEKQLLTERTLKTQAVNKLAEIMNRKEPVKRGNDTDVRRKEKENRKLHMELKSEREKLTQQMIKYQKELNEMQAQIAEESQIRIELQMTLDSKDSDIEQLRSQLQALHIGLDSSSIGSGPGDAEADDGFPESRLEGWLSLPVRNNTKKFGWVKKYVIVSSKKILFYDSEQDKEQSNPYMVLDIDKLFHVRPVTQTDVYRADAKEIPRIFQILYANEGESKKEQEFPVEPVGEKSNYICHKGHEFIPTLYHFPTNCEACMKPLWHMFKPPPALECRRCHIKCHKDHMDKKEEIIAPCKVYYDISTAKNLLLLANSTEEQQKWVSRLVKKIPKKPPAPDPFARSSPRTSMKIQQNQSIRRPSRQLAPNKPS

As usually defined, the pIC50 is the negative decadic logarithm of the IC50, by convention in mol/L. Consider `COC(=O)c1ccc(CN(CCO)C(=O)Nc2ccc3cnccc3c2)cc1`, for which the pIC50 in experiment [1] was less than 6.00.

On to `CN(C)CCN(Cc1ccccc1)C(=O)Nc1ccc2cnccc2c1`, for which, in experiment [1], the pIC50 is less than 6.00.

Turning to `CN(C)CCN(Cc1ccc(Oc2ccc(C#N)cc2)cc1)C(=O)Nc1ccc2cnccc2c1`, the negative-log IC50 (pIC50) in experiment [1] is less than 6.00.

In the case of `NCCN(Cc1ccc(F)cc1)C(=O)Nc1cccc2cnccc12`, the pIC50 in experiment [2] is less than 6.00.
